Experimental findings from PMC11945486, “TAS1R2/TAS1R3 Single-Nucleotide Polymorphisms Affect Sweet Taste Receptor Activation by Sweeteners: The SWEET Project” (Nutrients, 2025) are described below.

Where two headings read alike, the source gives them in different places. No end group written: not given here.

For the assay, the target named is T1, human TAS1R2-WT/TAS1R3-C757R (Homo sapiens, UniProt Q7RTX0+Q8TE23, C757R).
T1 construct: expressed in transfected cells; host or cells: HEK293T stably expressing Gα16gust44
T1 sequence (Q8TE23 20-839): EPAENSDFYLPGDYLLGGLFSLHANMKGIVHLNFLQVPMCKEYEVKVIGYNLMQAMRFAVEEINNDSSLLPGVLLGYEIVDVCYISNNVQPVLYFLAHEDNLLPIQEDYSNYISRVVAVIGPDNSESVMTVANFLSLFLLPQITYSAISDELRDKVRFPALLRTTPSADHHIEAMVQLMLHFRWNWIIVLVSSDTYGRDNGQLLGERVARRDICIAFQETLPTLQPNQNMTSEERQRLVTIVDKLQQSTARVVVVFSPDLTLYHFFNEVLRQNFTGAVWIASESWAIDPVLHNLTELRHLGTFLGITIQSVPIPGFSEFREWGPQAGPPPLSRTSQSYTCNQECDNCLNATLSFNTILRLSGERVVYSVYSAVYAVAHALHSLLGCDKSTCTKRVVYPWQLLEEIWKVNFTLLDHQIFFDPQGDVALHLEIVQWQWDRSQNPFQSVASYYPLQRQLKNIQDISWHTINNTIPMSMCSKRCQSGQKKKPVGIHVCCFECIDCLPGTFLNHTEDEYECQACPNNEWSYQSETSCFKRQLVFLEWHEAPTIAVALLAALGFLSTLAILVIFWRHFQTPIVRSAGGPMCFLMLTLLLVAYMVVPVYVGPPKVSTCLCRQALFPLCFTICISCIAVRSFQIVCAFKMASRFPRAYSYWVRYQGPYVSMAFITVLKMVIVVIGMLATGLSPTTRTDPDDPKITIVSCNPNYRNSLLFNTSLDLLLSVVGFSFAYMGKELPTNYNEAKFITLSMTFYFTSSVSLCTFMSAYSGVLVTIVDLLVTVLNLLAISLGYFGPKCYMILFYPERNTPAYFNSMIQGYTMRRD
T1 sequence (Q7RTX0 21-852 C757R): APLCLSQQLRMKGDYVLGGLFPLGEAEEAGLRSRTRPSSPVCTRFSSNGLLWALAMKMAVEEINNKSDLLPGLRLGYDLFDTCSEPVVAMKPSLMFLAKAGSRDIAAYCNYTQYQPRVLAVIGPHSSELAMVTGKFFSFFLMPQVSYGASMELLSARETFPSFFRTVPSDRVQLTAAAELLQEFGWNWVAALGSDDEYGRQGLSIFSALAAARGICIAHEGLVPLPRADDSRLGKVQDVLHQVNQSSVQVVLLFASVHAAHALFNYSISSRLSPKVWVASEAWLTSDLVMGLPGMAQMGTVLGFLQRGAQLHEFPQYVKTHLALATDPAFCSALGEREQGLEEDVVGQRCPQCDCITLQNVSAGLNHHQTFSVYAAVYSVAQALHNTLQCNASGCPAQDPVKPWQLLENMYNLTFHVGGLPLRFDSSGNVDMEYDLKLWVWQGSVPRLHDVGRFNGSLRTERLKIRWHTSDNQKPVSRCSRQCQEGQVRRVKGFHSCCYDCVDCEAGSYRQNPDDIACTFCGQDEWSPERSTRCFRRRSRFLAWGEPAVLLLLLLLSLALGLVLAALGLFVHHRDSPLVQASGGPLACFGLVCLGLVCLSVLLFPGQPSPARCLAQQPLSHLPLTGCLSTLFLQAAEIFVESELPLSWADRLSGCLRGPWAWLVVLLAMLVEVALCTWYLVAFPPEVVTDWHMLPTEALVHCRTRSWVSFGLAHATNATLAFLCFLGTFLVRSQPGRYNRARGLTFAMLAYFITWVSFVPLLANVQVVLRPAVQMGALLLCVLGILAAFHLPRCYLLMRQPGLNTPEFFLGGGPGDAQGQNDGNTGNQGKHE
Kind of assay: Calcium mobilisation assay, TAS1R2-WT with TAS1R3 variant C757R. It counts as cell-based. Particulars: for Max ΔF/F0: maximal signal amplitude. From the text:
The coding sequences for TAS1R2 and TAS1R3 were commercially synthesised, and the human codon was optimised for expression in human cells. The coding sequences of human TAS1R2 and TAS1R3 were subcloned and inserted into the mammalian expression vectors pcDNA6/myc-HisA and pcDNA4/myc-HisA (Invitrogen; Thermo Fisher Scientific; Illkirch, France) between the EcoRI and NotI restriction sites, generating the plasmids pcDNA6-TAS1R2 and pcDNA4-TAS1R3, respectively. To increase protein expression in mammalian cells, an upstream start codon was used, which was a sequence called MAX, corresponding to the QBI SP163 element also described in pcDNA4-HisMax (Invitrogen; Thermo Fisher Scientific; Illkirch, France). To measure the expression level of the receptor by immunohistochemistry, we used the FLAG sequence ([…]) in the C-terminal position, which encodes the FLAG tag epitope. SNP variants of TAS1R2 and TAS1R3 were constructed based on […], respectively, using site-directed mutagenesis (Genewiz; Leipzig, Germany).
The HEK293T cells were kindly provided by Jay P. Slack (Givaudan Flavors Corporation; Cincinnati, OH, USA). HEK293T cells stably transfected with Gα16gust44 [43, 67] were seeded in poly-D-lysine-coated clear-bottom black 96-well plates (0.35 × 10^5 cells/well) in high-glucose DMEM supplemented with 2 mM GlutaMAX, 10% dialysed foetal bovine serum with penicillin/streptomycin and G418 (400 μg/mL) at 37 °C and 6.3% CO2 in a humidified atmosphere as previously reported. […] As a negative control, HEK293T cells were mock-transfected with the empty expression vector. After a further 24 h of incubation, the HEK293T cells were washed with C1 buffer (130 mM NaCl, 5 mM KCl, 10 mM HEPES pH 7.4 and 2 mM CaCl2). The 96-well plates containing the cells were then stimulated with sweet-tasting compounds. […] Different concentration ranges were tested depending on the sweet compound injected. The Ca^2+ changes were expressed as fractional changes in fluorescent light intensity: ΔF/F = (F − F0)/F0, where F was the fluorescent light intensity at each point, and F0 was the value of emitted fluorescent light prior to stimulus application. To calculate dose–response relationships, the changes in fluorescence upon stimulus application were averaged, mock-subtracted and baseline-corrected. The dose–response data obtained were adjusted using a 4-parameter logistic equation. The half-maximal effective concentrations (EC50 values) and maximal signal amplitudes were calculated using SigmaPlot software (version 15.0) (Systat Software; San Jose, CA, USA).
For in vitro calcium mobilisation assay performed on hTAS1R2-SNPs, hTAS1R3-SNPs and mTAS1R3-I60T, 6 to 7 concentrations were tested for each sweet compound, plus buffer alone. All concentration–receptor combinations were measured in duplicate, and each experiment was repeated at least 4 times (8 wells/concentration). Results were expressed for each concentration as ΔF/F mean ± SEM and represented as dose–response curves.
On the technique in general: Calcium assays in cells follow changes in intracellular calcium, usually with a dye or a luminescent sensor.

In general, EC50 refers to the midpoint of the concentration-response curve. For the molecule `OC[C@H]1O[C@H](O[C@]2(CCl)O[C@H](CCl)[C@@H](O)[C@@H]2O)[C@H](O)[C@@H](O)[C@H]1Cl` [Sucralose], the “R1 = Variant EC50/WT EC50” value came to 1.0 and the “Max ΔF/F0” value is recorded as 0.84 ± 0.03. In addition, the half-maximal effective concentration (EC50) (read-out: EC50) was 113 ± 10 µM.
As for `C[C@H](CC[C@@H](O[C@@H]1O[C@H](CO[C@@H]2O[C@H](CO)[C@@H](O)[C@H](O)[C@H]2O)[C@@H](O)[C@H](O)[C@H]1O[C@@H]1O[C@H](CO)[C@@H](O)[C@H](O)[C@H]1O)C(C)(C)O)[C@H]1CC[C@@]2(C)[C@@H]3CC=C4[C@@H](CC[C@H](O[C@@H]5O[C@H](CO[C@@H]6O[C@H](CO)[C@@H](O)[C@H](O)[C@H]6O)[C@@H](O)[C@H](O)[C@H]5O)C4(C)C)[C@]3(C)[C@H](O)C[C@]12C` [Mogroside V, mogroside V], the “R1 = Variant EC50/WT EC50” value was 0.7 and the “Max ΔF/F0” value is given as 1.03 ± 0.02. Also, where the note is “read-out: EC50”, the EC50 stood at 21.7 ± 1 µM.
The corresponding values for `COC(=O)[C@H](Cc1ccccc1)NC(=O)[C@H](CC(=O)O)NCCC(C)(C)C` [Neotame] are 0.7, 0.75 ± 0.03 and 0.88 ± 0.12 µM.
With “brazzein (QDKCKKVYENYPVSKCQLANQCNYDCKLDKHARSGECFYDEKRNLQCICDYCEY; ends and bridges not checked; cysteine pairing not given here; UniProt P56552 1-54, looked up) [sweet-tasting protein obtained by recombinant production using the yeast Pichia pastoris]”, the “R1 = Variant EC50/WT EC50” value is reported as 0.7 and the “Max ΔF/F0” value is 0.86 ± 0.06. Further, where the note is “brazzein”, the EC50 was found to be 74.2 ± 1.9 mg/L.
For `C=C(C)[C@@H]1CC=C(/C=N/O)CC1` [Perillartine, perillartine], the “R1 = Variant EC50/WT EC50” value is 0.6 and the “Max ΔF/F0” value is recorded as 1.23 ± 0.13. For the setting “read-out: EC50”, the EC50 is 8.1 ± 2.6 µM.
The corresponding values for `CC1=CC(=O)NS(=O)(=O)O1` [Acesulfame K, acesulfame K] are 0.8, 0.42 ± 0.01 and 468 ± 31 µM.
The corresponding values for `C=C1C[C@@]23CC[C@H]4[C@@](C)(CCC[C@@]4(C)C(=O)O[C@@H]4O[C@H](CO)[C@@H](O)[C@H](O[C@@H]5O[C@H](CO)[C@@H](O)[C@H](O)[C@H]5O)[C@H]4O[C@@H]4O[C@H](CO)[C@@H](O)[C@H](O)[C@H]4O)[C@@H]2CC[C@]1(O[C@@H]1O[C@H](CO)[C@@H](O)[C@H](O[C@@H]2O[C@H](CO)[C@@H](O)[C@H](O)[C@H]2O)[C@H]1O[C@@H]1O[C@H](CO)[C@@H](O)[C@H](O)[C@H]1O)C3` [Rebaudioside M, rebaudioside M] are 0.6, 1.13 ± 0.04 and 24.3 ± 2.2 µM.
On to `O=S(=O)(O)NC1CCCCC1` [Cyclamate, cyclamate], for which the EC50 (read-out: EC50) is 1150 ± 54 µM.
`COc1ccc(CCC(=O)c2c(O)cc(O[C@@H]3O[C@H](CO)[C@@H](O)[C@H](O)[C@H]3O[C@@H]3O[C@@H](C)[C@H](O)[C@@H](O)[C@H]3O)cc2O)cc1O` [NHDC, neohesperidin dihydrochalcone]: the “R1 = Variant EC50/WT EC50” value was 0.7 and the “Max ΔF/F0” value stood at 0.98 ± 0.01. In addition, the EC50 (read-out: EC50) was determined as 36.5 ± 16 µM.
As to thaumatin, the “R1 = Variant EC50/WT EC50” value is 0.6 and the “Max ΔF/F0” value is 0.69 ± 0.05.

B1: thaumatin (protein)
chain: ATFEIVNRCSYTVWAAASKGDAALDAGGRQLNSGESWTINVEPGTKGGKIWARTDCYFDDSGSGICKTGDCGGLLRCKRFGRPPTTLAEFSLNQYGKDYIDISNIKGFNVPMDFSPTTRGCRGVRCAADIVGQCPAKLKAPGGGCNDACTVFQTSEYCCTTGKCGPTEYSRFFKRLCPDAFSYVLDKPTTVTCPGSSNYRVTFCPTA
modifications: Eight disulfides
notes: sweet-tasting plant protein, E957
Take B1: the EC50 (read-out: EC50) was 6.7 ± 1.4 µM.
